Measured values published in US9878021B2, “Compositions and methods for treatment of retinal degenerative diseases” (MOR RESEARCH APPLICATIONS LTD., priority 2013, dated 2018).

Tests used:
Format in all cases: cell-based
RPE cells [1] = test: SA-β-gal (senescence marker) staining
RPE cells (ARPE-19) [2] = test: Double-staining (annexin and propidium iodide) FACS assay of RPE cells; conditions: TAK1 inhibitor 1 μM 1 hour prior to H2O2 200 μM; untreated 1.25%, H2O2 alone 31%
Procedure: (§1) Double-staining (annexin and propidium iodide (PI)) assay of RPE cells. RPE cells (ARPE-19, available from ATCC) were treated for one hour with the TAK1 inhibitor {5Z-7-oxozeaenol (1 μM)}, following 200 μM H2O2 for one hour or left untreated. The cells were then washed with fresh medium and after 24 hours were trypsinized, stained, and analyzed by FACS. The percentage of cells in each cell-cycle phase (G1/G0, S, and G2/M) was determined by its DNA content (FL2A).

ARPE-19 cells = test: Cell viability / proliferation XTT assay
Procedure: Cell viability assays ARPE-19 cells were seeded in 96-well plates (5000 cells/well) in full medium and were pretreated with the TAK1 inhibitor 5Z-7-oxozeaenol (1 μM) or left untreated for 1 hour. Their viability was then assayed by the XTT assay (cell proliferation kit cat #20-300-1000; Beit Haemek, Israel).
(§2) To determine possible toxicity of anisomycin to RPE cells, RPE cells were treated with anisomycin at different concentration for 5 minute periods. Following treatment, the medium was replaced and fresh medium was added. 72 hours post-treatment, the cells were photographed. […] Their viability was then assayed by the XTT assay.

RPE cells (ARPE-19) [3] = test: FACS cell-cycle analysis by DNA content (FL2A)
Procedure: as §1

RPE cells [4] = test: RPE cell size quantification (hypertrophy); conditions: TAK1 inhibition combined with oxidative stress, compared to stressed and normal cells
Procedure: N=40 cells for each treatment.
One of the hallmarks of RPE senescence is cellular hypertrophy. RPE cell size is approximately […]; but upon oxidative stress or genetic mutation RPE cells can undergo enlargement.

RPE cells [5] = test: Conditioned media (SASP) applied on fresh RPE cells, morphology; conditions: applied 72 hours
Procedure: The most significant effect of senescence, is the acquisition of a senescence-associated secretory phenotype (SASP). SASP can convert senescent cells to proinflammatory cells that promote the secretion of chemokines and cytokines that can affect the microenvironment, including in the human retina (16, 17). To examine the role of TAK1 in this process, RPE cells were treated with TAK1 inhibitor or with H2O2, alone or in combination. After 2 weeks, the media was collected from the three separate treatments, centrifuged and the supernatants (conditioned media) were applied on fresh RPE cells for 72 hours.

[6] = test system: p53, phospho-p38 in RPE cells; test: Western blot analysis of p53 and phospho-p38
Procedure: Western blot analysis was performed by standard protocols (11), p53, p38, phospho-p38, GADPH, and TAK1; antibodies were obtained from Enco, Israel.

RPE cells [7] = test: Anisomycin toxicity to RPE cells, cellular morphology; conditions: different concentrations for 5 minute periods, 72 hours post-treatment; low levels
Procedure: as §2

Compound | number of cells expressing SA-β-gal (RPE cells [1]; TAK1 inhibitor alone, relative to untreated cells) | SA-β-gal expression (RPE cells [1]; pretreatment with TAK1 inhibitor then oxidative stress (H2O2), days 13 and 16) | number of apoptotic cells expressed as a percentage of the total number (RPE cells (ARPE-19) [2]) | proliferation rate (optical density) (ARPE-19 cells; 1 μM pretreatment 1 hour, untreated cells peak on day 4) | G2/M arrest under oxidative stress (RPE cells (ARPE-19) [3]; TAK1 inhibition prior to H2O2 treatment) | percentage of cells at the G0/G1 stage (RPE cells (ARPE-19) [3]; following TAK1 inhibition, of the total number) | cell size (RPE cells [4]) | phenotype of fresh RPE cells receiving conditioned medium (RPE cells [5]; medium from cells treated with TAK1 inhibitor alone, 2 weeks) | phenotype of fresh RPE cells receiving conditioned medium (RPE cells [5]; medium from cells treated with both TAK1 inhibitor and H2O2, 2 weeks) | p38 phosphorylation ([6]; RPE cells under oxidative stress, pretreated with TAK1 inhibitor 1 μM) | p53 expression levels over a longer period ([6]; TAK1 inhibition, days, compared to untreated cells) | time at which p53 expression peaked ([6]; pretreated cells under oxidative stress, control cells peak after 60 min) | number of SA-β-Gal positive cells (RPE cells [1]; H2O2 1 hour, 10 days growth, anisomycin 10 ng/ml 5 min, five more days, vs untreated cells exposed to oxidative stress) | rate of cell proliferation (ARPE-19 cells; oxidative stress and anisomycin) | toxicity to RPE cells (cellular morphology vs control) (RPE cells [7])
COc1cc(O)c2c(c1)/C=C/C[C@H](O)[C@H](O)C(=O)/C=C\C[C@H](C)OC2=O [5Z-7-oxozeaenol] | dramatically increased | strongly increased | 24% | slower proliferation rate that began to decrease after 3 days | reduced | 89% | further increases cell size | hypertrophic phenotype similar to that of senescent cells | aberrant morphology similar to that of atrophic RPE cells | inhibition of p38 phosphorylation | reduced p53 expression levels slightly more than the untreated cells | 10 min |  |  | 
COc1ccc(C[C@H]2NC[C@H](O)[C@H]2OC(C)=O)cc1 [anisomycin, (2R,3S,4S)-4-hydroxy-2-(4-methoxybenzyl)-pyrrolidin-3-yl acetate] |  |  |  |  |  |  |  |  |  |  |  |  | reduces the number of SA-β-Gal positive cells | did not display reduction | not toxic
